Data from patent US20180245061A1, “Modified Heterocyclase” (THE UNIVERSITY COURT OF THE UNIVERSITY OF ABERDEEN, priority 2014, published 2018).

Experiments:
Set-up in all cases: species or system Lyngbya sp. PCC 8106
[1] = target: Lyngbya sp. LynD heterocyclase, wild type, SEQ ID NO: 1; assay: ITC nucleotide binding (ATP/AMP) to LynD; conditions: 25° C., pH 7.4, 5 mM MgCl2, one-site model, stoichiometry set to 1, read-out: Nucleotide KD (AMP)
Experimental: (§1) Codon optimized full-length LynD (Lyngbya sp. PCC 8106) with an N-terminal TEV protease-cleavable His6-tag was purchased from DNA2.0 in the pJexpress411 plasmid. The protein was expressed in Escherichia coli BL21 (DE3) grown on auto-induction medium {Studier, 2005, Protein expression and purification, 41, 207-234} for 48 h at 20° C. Cells were harvested by centrifugation at 4,000×g, 4° C. for 15 min and re-suspended in lysis buffer (500 mM NaCl, 20 mM Tris pH 8.0, 20 mM imidazole and 3 mM β-mercaptoethanol (BME)) with the addition of complete EDTA-free protease inhibitor tablets (Roche) and 0.4 mg DNase g^−1 wet cells (Sigma). Cells were lysed by passage through a cell disruptor at 30 kPSI (Constant Systems Ltd) and the lysate was cleared by centrifugation at 40,000×g, 4° C. for 20 min. The cleared lysate was applied to a Nickel Sepharose 6 Fast Flow (GE Healthcare) column pre-washed with lysis buffer and protein eluted with 250 mM imidazole. The protein was then passed over a desalting column (Desalt 16/10, GE Healthcare) in 100 mM NaCl, 20 mM Tris pH 8.0, 20 mM imidazole, 3 mM BME. Tobacco etch virus (TEV) protease was added to the protein at a mass-to-mass ratio of 1:10 and the protein digested for 2 h at 20° C. to remove the Hiss-tag. However, removal of the Hiss-tag was not essential for activity and so less vigorous methods for purification may also be used. […]

[2] = target: Lyngbya sp. LynD heterocyclase (SEQ ID NO: 1) variant K409E; assay: ITC nucleotide binding (ATP/AMP) to LynD K409E; conditions: 25° C., pH 7.4, 5 mM MgCl2
Experimental: as §1

[3] = target: Lyngbya sp. LynD heterocyclase (SEQ ID NO: 1) variant K409A; assay: ITC nucleotide binding (ATP/AMP) to LynD K409A; conditions: 25° C., pH 7.4, 5 mM MgCl2
Experimental: as §1

[4] = target: Lyngbya sp. LynD heterocyclase (SEQ ID NO: 1) variant E423R; assay: ITC nucleotide binding (ATP/AMP) to LynD E423R; conditions: 25° C., pH 7.4, 5 mM MgCl2
Experimental: as §1

[5] = target: Lyngbya sp. LynD heterocyclase (SEQ ID NO: 1) variant R427E; assay: ITC nucleotide binding (ATP/AMP) to LynD R427E; conditions: 25° C., pH 7.4, 5 mM MgCl2
Experimental: as §1

[6] = target: Lyngbya sp. LynD heterocyclase (SEQ ID NO: 1) variant R636E; assay: ITC nucleotide binding (ATP/AMP) to LynD R636E; conditions: 25° C., pH 7.4, 5 mM MgCl2
Experimental: as §1

[7] = target: Lyngbya sp. LynD heterocyclase (SEQ ID NO: 1) variant R636A; assay: ITC nucleotide binding (AMP) to LynD R636A; conditions: 25° C., pH 7.4, 5 mM MgCl2
Experimental: as §1

SMILES: Nc1ncnc2c1ncn2[C@@H]1O[C@H](COP(=O)(O)O)[C@@H](O)[C@H]1O [AMP]
- Kd [1]: 14.4 µM
- Nucleotide KD (AMP) [2]: no binding
- Nucleotide KD (AMP) [3]: no binding
- Kd [4]: 5.65 µM
- Kd [5]: 23 µM
- Nucleotide KD (AMP) [6]: no binding
- Nucleotide KD (AMP) [7]: no binding
